Test system: general yeast
Test: Ethanol fermentation by a general yeast with limonene added to YPD culture medium
Format: cell-based, Saccharomyces Cerevisiae
Details: 0.1% v/v of limonene added
Description: Generally, yeast is present in a sugar solution as fine solid particles and easily adsorbs oily substances. Therefore, the reason for the above-described experimental results may be that the limonene (in an oil form) added in a small amount (0.05% v/v) adsorbed to the yeast, causing fermentation inhibition. To remove limonene, which is a fermentation inhibitor, from a juice residue extract, limonene in a solid form, which accounts for 75% or larger of the total amount of limonene, must be removed, and limonene in a micelle form present as a light liquid (an oily substance) must also be removed. […] Therefore, fermentability tended to be unstable due to the influence of contamination etc. and it was difficult to maintain high fermentability over a long period of time.

C=C(C)[C@H]1CC=C(C)CC1 [limonene]
rate of ethanol production: about 20%
